In ChEMBL document CHEMBL1201862, “PubChem BioAssay data set” (2004):
Calls of active or inactive are those of the source.

Legend:
[1] = target: Neurotensin receptor type 1 (Homo sapiens, UniProt P30989); format: functional;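 also: Image-based confirmatory dose-response assay measuring agonist activity at NTR1; NTR1-expressing U2OS osteosarcoma cells imaged for beta-arrestin GFP spot formation; agonist potency where compounds increase beta-arrestin recruitment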
[2] = target: T1, Ubiquitin-conjugating enzyme E2 N (Homo sapiens, UniProt P61088); format: functional;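 also: Dose-response confirmation in a TR-FRET assay detecting UBC13-driven polyubiquitin chain formation, inhibition measured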
T1 sequence (P61088 whole entry): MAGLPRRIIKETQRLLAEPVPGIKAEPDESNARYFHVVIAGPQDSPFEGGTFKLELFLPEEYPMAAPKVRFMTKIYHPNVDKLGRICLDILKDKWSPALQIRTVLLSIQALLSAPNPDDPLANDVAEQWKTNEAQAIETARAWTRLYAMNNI

[3] = Cytotoxicity screening for potential Inhibitors of Bacterial Capsule Biogenesis. [Related pubchem assays (depositor defined):AID488970]; format: functional
Vibrio harveyi [4] = assay: Quorum Sensing, LuxS, LuxPQ Measured in Microorganism System Using Plate Reader - 2035-01_Inhibitor_DoseNoFile_DryPowder_Activity. [Related pubchem assays (depositor defined):AID2106]; format: functional, organism-based
Vibrio harveyi [5] = assay: inhibitors of AI-2 quorum sensing in V. harveyi, dose response, LuxS, LuxPQ, dry powder, set 2 (AID 493072); format: functional, organism-based
HEK293 [6] = assay: cells; conditions: Homo sapiens
Streptococcus = assay: Group A Streptococcus viability loss, dose response, counter-screen for streptokinase expression inhibitor project, luminescence, BacTiterGlo (AID 1915); format: functional, organism-based;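 also: potency for reduction of bacterial viability or growth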
Streptokinase A = target: T2, Streptokinase A (Streptococcus pyogenes serotype M1, UniProt P10520); assay: S. pyogenes streptokinase expression inhibitors, potency, dose response, plasminogen activation absorbance, OD405 (AID 1914); format: functional, Streptococcus pyogenes M1 GAS;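 also: secreted streptokinase activity via plasminogen activation per viability signal from cell pellet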
T2 sequence (P10520 whole entry): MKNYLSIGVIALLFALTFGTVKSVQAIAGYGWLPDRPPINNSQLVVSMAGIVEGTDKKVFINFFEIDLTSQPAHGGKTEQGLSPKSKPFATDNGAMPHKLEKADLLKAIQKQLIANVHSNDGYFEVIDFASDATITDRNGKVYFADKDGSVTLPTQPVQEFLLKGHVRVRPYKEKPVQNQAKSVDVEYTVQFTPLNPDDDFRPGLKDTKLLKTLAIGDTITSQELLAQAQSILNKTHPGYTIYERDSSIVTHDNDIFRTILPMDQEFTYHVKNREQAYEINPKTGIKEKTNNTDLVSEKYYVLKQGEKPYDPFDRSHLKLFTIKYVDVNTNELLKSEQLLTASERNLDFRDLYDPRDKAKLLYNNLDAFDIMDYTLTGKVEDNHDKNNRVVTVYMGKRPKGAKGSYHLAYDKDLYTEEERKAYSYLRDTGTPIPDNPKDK

[7] = test system: Streptococcus sp. 'group A'; assay: growth inhibition of control SK(-) GAS strain, dose response, counter-screen for streptokinase expression inhibitor project, luminescence, kanamycin, BacTiterGlo, confirmation (AID 1900); format: functional, organism-based; conditions: read-out: EC50
[8] = target: Nucleotide-binding oligomerization domain-containing protein 2 (Homo sapiens, UniProt Q9HC29); assay: PubChem AID 2334; format: functional
Sequence of Nucleotide-binding oligomerization domain-containing protein 2 (Q9HC29 whole entry, the tested form may be a part): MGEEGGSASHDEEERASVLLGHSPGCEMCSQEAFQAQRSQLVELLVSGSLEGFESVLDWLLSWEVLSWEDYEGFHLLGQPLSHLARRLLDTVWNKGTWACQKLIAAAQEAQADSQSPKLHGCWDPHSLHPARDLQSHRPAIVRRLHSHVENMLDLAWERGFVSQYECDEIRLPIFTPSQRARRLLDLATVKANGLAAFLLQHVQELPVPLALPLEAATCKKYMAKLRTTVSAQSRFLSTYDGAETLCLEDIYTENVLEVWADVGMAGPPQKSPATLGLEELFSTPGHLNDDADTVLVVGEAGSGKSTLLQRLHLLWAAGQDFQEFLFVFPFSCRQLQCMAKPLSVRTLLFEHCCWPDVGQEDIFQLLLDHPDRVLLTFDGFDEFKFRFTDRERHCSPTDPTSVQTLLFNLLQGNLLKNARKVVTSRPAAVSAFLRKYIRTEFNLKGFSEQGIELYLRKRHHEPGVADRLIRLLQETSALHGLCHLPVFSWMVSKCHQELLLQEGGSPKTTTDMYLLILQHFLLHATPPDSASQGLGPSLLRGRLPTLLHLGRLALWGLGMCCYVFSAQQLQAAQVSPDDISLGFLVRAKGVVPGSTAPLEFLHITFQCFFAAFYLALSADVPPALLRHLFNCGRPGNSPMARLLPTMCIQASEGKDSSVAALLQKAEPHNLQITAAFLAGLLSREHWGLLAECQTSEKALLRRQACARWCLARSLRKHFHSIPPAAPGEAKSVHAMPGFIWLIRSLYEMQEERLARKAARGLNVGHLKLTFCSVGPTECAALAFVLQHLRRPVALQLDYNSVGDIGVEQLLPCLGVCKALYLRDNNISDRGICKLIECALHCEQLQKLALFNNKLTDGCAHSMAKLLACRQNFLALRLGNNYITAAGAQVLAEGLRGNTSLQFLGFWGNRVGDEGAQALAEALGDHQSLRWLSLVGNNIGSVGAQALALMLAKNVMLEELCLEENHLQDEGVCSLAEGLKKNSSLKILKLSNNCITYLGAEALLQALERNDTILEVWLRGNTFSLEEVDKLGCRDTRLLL

H9c2 = assay: cells; format: functional, cell-based; conditions: Rattus norvegicus, H9c2, Myocardium;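 also: confirmatory concentration-response retest of ultra-high-throughput screening hits for modulation of myocardial damage; cell death induced by hydrogen peroxide oxidative stress; compound pretreatment for 60 min then peroxide exposure for 2 h; potency is for protecting the cells against peroxide damage rather than for killing them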
Tumor necrosis factor = Tumor necrosis factor (Homo sapiens, UniProt P01375); assay: TNFa-triggered NF-kB activation inhibitors, SAR follow-up, cell-based, revised (AID 2337); format: functional
Sequence of Tumor necrosis factor (P01375 whole entry, the tested form may be a part): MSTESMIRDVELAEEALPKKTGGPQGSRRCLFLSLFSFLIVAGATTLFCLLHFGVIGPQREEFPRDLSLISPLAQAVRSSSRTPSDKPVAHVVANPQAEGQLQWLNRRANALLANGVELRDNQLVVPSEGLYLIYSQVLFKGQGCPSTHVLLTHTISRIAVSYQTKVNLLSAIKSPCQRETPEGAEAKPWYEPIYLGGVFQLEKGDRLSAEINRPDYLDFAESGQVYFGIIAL

[9] = target: Nucleotide-binding oligomerization domain-containing protein 1 (Homo sapiens, UniProt Q9Y239); assay: NOD1 signaling inhibitors, SAR follow-up, revised (AID 2333); format: functional
Sequence of Nucleotide-binding oligomerization domain-containing protein 1 (Q9Y239 whole entry, the tested form may be a part): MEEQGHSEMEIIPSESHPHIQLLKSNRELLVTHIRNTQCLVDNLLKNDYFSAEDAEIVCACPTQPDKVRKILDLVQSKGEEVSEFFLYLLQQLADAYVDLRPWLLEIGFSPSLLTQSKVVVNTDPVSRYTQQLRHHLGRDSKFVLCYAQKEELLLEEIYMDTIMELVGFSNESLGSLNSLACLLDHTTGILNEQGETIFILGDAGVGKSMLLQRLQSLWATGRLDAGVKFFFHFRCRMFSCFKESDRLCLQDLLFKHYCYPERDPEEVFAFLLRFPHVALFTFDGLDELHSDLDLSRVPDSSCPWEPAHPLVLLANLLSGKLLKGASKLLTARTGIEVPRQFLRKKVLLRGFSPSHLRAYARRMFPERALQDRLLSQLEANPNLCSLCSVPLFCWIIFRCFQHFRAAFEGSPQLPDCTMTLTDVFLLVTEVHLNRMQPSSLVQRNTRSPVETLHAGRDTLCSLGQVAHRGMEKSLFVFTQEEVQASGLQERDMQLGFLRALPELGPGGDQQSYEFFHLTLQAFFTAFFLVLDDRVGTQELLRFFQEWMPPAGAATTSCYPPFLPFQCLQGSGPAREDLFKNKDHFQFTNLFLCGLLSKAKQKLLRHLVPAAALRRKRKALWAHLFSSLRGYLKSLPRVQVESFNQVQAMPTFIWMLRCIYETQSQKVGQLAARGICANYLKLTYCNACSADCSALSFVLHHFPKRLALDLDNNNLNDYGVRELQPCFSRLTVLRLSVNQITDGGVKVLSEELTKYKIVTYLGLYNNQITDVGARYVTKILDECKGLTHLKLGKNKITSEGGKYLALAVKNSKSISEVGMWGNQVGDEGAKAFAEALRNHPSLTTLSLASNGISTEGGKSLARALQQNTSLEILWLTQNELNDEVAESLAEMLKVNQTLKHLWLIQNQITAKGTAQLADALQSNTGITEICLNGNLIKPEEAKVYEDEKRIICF

[10] = target: SWI/SNF-related matrix-associated actin-dependent regulator of chromatin subfamily A member 2 (Homo sapiens, UniProt P51531); assay: Luminescence-based cell-based high throughput dose response assay to identify activators of the function of SWI/SNF related, matrix associated, actin dependent regulator of chromatin, subfamily a, member 2 (SMARCA2, BRM).; format: functional
Mu-type opioid receptor = Mu-type opioid receptor (Homo sapiens, UniProt P35372); format: functional, cell-based;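 also: U2OS cells with beta-arrestin recruitment to OPRM1 by beta-gal complementation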
Sequence of Mu-type opioid receptor (P35372 whole entry): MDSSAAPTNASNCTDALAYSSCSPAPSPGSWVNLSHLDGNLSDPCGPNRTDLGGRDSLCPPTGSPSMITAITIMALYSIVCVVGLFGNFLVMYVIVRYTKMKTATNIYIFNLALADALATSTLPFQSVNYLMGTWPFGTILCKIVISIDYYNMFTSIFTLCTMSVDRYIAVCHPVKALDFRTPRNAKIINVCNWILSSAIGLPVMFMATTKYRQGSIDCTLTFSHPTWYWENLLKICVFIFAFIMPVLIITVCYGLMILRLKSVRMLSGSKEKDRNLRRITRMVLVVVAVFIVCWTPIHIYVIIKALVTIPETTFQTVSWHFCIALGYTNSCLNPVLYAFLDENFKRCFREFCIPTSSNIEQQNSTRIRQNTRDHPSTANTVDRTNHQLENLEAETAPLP

[11] = target: 5-hydroxytryptamine receptor 2A (Mus musculus, UniProt P35363); format: functional, cell-based;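 also: CHO-K1 cells with tagged receptor and beta-arrestin; agonist potency measured as compound-induced activation of the receptor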
HEK293 [12] = assay: cells; format: functional, cell-based; conditions: Homo sapiens
[13] = target: Dual specificity tyrosine-phosphorylation-regulated kinase 1A (Rattus norvegicus, UniProt Q63470); format: biochemical, Homo sapiens
[14] = target: T3, Oxysterols receptor LXR-beta (Homo sapiens, UniProt P55055); format: functional, cell-based;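 also: agonist activity at LXR measured by a cell-based luminescence readout across a dose range, run as a counterscreen for daf-12 agonists; HEK293 cells with Gal4-LXR fusion and GAL4-driven luciferase reporter; potency for activation of Gal4-LXR reporter so compounds are agonists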
T3 sequence (P55055 whole entry): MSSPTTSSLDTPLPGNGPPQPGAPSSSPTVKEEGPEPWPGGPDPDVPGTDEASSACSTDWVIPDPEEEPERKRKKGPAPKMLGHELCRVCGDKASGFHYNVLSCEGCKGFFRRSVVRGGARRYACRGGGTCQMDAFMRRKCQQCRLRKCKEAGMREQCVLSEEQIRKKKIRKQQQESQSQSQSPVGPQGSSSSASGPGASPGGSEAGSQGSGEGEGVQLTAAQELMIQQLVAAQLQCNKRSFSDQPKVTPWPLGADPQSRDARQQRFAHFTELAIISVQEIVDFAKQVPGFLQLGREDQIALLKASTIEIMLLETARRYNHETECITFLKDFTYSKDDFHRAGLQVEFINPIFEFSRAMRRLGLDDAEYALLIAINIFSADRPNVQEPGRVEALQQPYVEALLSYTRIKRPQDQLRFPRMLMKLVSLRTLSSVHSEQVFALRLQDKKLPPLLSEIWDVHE

[15] = target: T4, Nuclear receptor subfamily 0 group B member 1 (Homo sapiens, UniProt P51843); assay: Luminescence-based cell-based high throughput dose response assay for inhibitors of the orphan nuclear receptor subfamily 0, group B, member 1 (DAX1; NR0B1). [Related pubchem assays (depositor defined):AID504766, AID504790]; format: functional
T4 sequence (P51843 whole entry): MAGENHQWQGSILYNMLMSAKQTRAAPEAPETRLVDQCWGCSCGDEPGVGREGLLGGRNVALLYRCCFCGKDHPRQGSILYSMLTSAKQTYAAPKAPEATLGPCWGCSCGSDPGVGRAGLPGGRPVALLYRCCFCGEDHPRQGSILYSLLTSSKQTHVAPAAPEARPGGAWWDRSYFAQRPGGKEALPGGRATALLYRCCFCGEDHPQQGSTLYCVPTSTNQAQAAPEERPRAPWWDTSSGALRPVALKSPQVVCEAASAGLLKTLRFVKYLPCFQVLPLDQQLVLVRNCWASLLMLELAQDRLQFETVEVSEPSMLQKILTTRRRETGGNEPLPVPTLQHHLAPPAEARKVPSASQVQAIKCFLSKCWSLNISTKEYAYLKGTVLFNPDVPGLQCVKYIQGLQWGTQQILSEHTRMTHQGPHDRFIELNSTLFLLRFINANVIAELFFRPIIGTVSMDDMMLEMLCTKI

[16] = Counterscreen for activators of the function of SWI/SNF related, matrix associated, actin dependent regulator of chromatin, subfamily a, member 2 (SMARCA2, BRM): Luminescence-based cell-based high throughput dose response assay to identify non-selective compounds using the VP16 reporter assay.; format: functional
[17] = target: Cyclin-dependent kinase 5/CDK5 activator 1 (Homo sapiens, UniProt Q00535); assay: CDK5/p35 kinase inhibitors, dose response, biochemical, cherry-picked samples, set 2 (AID 504545)
Sequence of Cyclin-dependent kinase 5/CDK5 activator 1 (Q00535 whole entry): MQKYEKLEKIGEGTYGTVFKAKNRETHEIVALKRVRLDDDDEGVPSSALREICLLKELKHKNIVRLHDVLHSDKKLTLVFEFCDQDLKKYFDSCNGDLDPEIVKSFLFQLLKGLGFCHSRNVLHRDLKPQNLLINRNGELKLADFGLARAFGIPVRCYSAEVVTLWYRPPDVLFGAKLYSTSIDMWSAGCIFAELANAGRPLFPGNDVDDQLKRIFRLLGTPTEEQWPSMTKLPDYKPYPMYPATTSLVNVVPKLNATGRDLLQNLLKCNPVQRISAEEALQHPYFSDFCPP
Sequence of Cyclin-dependent kinase 5/CDK5 activator 1 (Q15078 whole entry, further chain): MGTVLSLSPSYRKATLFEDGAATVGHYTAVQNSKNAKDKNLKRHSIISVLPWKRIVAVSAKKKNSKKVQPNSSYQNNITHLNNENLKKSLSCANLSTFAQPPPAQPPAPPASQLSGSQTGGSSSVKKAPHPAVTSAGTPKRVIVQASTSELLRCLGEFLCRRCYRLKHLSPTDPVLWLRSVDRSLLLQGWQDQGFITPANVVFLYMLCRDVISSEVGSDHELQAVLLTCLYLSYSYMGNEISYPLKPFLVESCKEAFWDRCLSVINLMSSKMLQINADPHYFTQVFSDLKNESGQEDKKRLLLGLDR

[18] = target: Cystic fibrosis transmembrane conductance regulator/Golgi-associated PDZ and coiled-coil motif-containing protein (Homo sapiens, UniProt P13569+Q9HD26); assay: CAL PDZ peptide-binding inhibitors, dose response, biochemical, fluorescence polarization, Cerulean-tagged CAL PDZ, cherry-picks (AID 504773)
[19] = RKO cell viability reduction, dose response, CellTiter-Glo luminescence (AID 1117322); format: functional
[20] = target: NACHT, LRR and PYD domains-containing protein 3 (Homo sapiens, UniProt Q96P20); assay: NALP3 inhibitors in yeast, dose response, luminescent (AID 488799); format: functional
Sequence of NACHT, LRR and PYD domains-containing protein 3 (Q96P20 whole entry, the tested form may be a part): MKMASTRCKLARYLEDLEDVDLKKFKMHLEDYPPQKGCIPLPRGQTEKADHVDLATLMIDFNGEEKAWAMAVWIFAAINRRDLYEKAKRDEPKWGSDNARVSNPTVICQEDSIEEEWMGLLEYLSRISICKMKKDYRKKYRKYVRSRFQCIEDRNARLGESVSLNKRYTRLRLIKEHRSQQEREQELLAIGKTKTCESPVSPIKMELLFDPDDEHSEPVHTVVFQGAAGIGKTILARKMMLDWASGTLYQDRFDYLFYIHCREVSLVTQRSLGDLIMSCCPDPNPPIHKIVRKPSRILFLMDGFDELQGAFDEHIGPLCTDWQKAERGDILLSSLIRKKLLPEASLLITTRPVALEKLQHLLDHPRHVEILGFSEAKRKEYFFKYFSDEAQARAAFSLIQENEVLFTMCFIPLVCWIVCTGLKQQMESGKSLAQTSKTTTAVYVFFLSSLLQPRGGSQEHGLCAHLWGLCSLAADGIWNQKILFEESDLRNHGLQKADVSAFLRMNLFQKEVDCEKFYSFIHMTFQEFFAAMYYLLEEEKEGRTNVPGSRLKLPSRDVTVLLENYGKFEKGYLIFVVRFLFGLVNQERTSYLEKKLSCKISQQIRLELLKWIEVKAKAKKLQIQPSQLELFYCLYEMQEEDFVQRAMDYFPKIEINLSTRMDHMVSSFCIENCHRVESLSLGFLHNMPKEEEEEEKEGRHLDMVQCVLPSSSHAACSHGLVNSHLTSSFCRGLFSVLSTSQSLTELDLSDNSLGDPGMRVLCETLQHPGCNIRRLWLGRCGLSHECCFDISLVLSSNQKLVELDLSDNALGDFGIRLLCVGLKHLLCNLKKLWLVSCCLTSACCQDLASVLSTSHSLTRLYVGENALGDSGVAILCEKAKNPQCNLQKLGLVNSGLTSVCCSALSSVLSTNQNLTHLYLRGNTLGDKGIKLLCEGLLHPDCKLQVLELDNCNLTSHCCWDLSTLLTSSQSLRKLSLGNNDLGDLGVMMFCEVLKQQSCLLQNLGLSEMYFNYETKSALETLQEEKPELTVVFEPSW

[21] = HCT116 cell viability decrease, GSK3B pretreatment – CellTiter-Glo, IC50, dose response (AID 1117339); format: functional; conditions: HCT-116
[22] = SNU-C1 cell viability reduction, dose response, CellTiter-Glo luminescence (AID 1117323); format: functional, cell-based
[23] = target: Aryl hydrocarbon receptor (Homo sapiens, UniProt P35869); conditions: Potency;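 also: confirmatory quantitative high-throughput screen measuring activation of the AhR signaling pathway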
INS1 = assay: beta cell apoptosis inhibitors, cytokine rescue, dose response, luminescence, retest (AID 449756); format: functional, cell-based; conditions: Rattus norvegicus;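 also: cell death triggered by IL-1 beta plus TNF-alpha plus IFN-gamma mixture; protective hits raise ATP signal compared with cytokine alone wells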
[24] = cytotoxicity toward HCT116 cells – cell-based, CellTiter-Glo luminescence, IC50, dose response (AID 1117332); format: functional; conditions: HCT-116
[25] = Concentration-dependent survival of SW480 colon cancer line, luminescence detection with CellTiter-Glo, half-maximal inhibitory concentration (AID 1117338); format: functional
[26] = CellTiter-Glo luminescent dose response of DLD-1 viability loss (AID 1117352); format: functional
[27] = cytotoxicity toward Colo320 cells – cell-based, CellTiter-Glo luminescence, IC50, dose response (AID 1117334); format: functional; conditions: COLO 320
[28] = cytotoxicity toward HT-29 cells – cell-based, CellTiter-Glo luminescence, IC50, dose response (AID 1117330); format: functional

Sequence of Neurotensin receptor type 1 (P30989 whole entry): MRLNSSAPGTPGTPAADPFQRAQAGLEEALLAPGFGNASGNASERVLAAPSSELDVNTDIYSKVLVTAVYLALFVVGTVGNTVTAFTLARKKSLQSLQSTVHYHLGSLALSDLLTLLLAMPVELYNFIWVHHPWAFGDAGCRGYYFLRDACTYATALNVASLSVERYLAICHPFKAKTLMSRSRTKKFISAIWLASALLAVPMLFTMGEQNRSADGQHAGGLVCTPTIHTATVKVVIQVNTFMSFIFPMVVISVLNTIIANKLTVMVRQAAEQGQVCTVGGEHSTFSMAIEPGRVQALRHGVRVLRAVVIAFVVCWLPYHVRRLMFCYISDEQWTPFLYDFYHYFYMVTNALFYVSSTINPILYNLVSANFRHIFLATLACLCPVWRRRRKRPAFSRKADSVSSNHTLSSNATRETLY

Structure (SMILES): O=C(/C=C/c1ccccc1F)c1cccc([N+](=O)[O-])c1
- EC50 [1]: 15.1 µM (active)

Structure (SMILES): Cc1cc(C)c(NC(=O)C[N+](C)(C)CC(O)COc2cccc3ccccc23)c(C)c1 (stereo not given)
- IC50 [2]: > 20 µM (inactive)
- CC50 [3]: 15.6 µM (active)

Structure (SMILES): Cc1cccc(NS(=O)(=O)c2ccc(Oc3ccccc3)cc2)n1
- AC50 (Vibrio harveyi [4]): 2.4 µM (active)
- AC50 (Vibrio harveyi [5]): 4.9 µM (active)
- AC50 (Vibrio harveyi [5]; Vibrio harveyi): 5.99 µM (active)

Structure (SMILES): O=C(Nc1nc2ccccc2n1Cc1ccccc1)c1ccco1
- IC50 (HEK293 [6]): > 20 µM (inactive)
- EC50 (Streptococcus): > 150 µM (not active)
- EC50 (Streptokinase A): > 150 µM (not active)
- EC50 [7]: 3.48 µM (active)
- IC50 [8]: > 20 µM (inactive)
- IC50 (H9c2): > 79 µM (inactive)
- IC50 (Tumor necrosis factor): > 20 µM (inactive)
- IC50 [9]: > 20 µM (inactive)

Structure (SMILES): N#Cc1c(Br)n(C2OC(CO)C(O)C2O)c2ncnc(N)c12 (stereo not given)
- EC50 [10]: > 91.1 µM (inactive)
- EC50 (Mu-type opioid receptor): 92.4 µM (inactive)
- EC50 [11]: 0.482 µM (active)
- IC50 (HEK293 [12]): > 67.5 µM (inactive)
- AC50 [13]: 2.09 µM (active)
- EC50 [14]: > 67.5 µM (inactive)
- IC50 [15]: > 67.5 µM (inactive)
- EC50 [16]: > 91.1 µM (inactive)
- AC50 [17]: 184 µM (active)

Structure (SMILES): COC(=O)[C@H]1[C@H]2C[C@@H]3c4[nH]c5cc(OC)ccc5c4CCN3C[C@H]2C[C@@H](OC(=O)/C=C/c2cc(OC)c(OC)c(OC)c2)[C@@H]1OC [RESCINNAMINE]
- AC50 [18]: 142 µM (active)

Structure (SMILES): O=C(Nc1ccc(Cl)cc1)Nc1ccc(Cl)c(Cl)c1 [TRICLOCARBAN]
- IC50 [19]: 0.288 µM (active)
- IC50 [20]: 1.49 µM (active)
- IC50 [21]: 0.362 µM (active)
- IC50 [22]: 0.335 µM (active)
- AC50 [23]: 14.1 µM (inconclusive)
- AC50 (INS1): 3.69 µM (active)
- IC50 [24]: 0.228 µM (active)
- IC50 [25]: 0.897 µM (active)
- IC50 [26]: 0.323 µM (active)
- IC50 [27]: 0.362 µM (active)
- IC50 [28]: 0.383 µM (active)
